According to patent publication US20240207427A1, “SELECTIVE DRUG RELEASE FROM INTERNALIZED CONJUGATES OF BIOLOGICALLY ACTIVE COMPOUNDS” (priority 2021, published 2024):
Like-named read-outs stand apart in the source and are kept apart here.

Legend:
Type in all cases: cell-based
[1] = tested on: renal carcinoma cells (786-O); assay: In vitro potency (CellTiter-Glo, 96 h), 786-O; conditions: Homo sapiens, 786-0, 96 h
In short: (§1)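 Log-phase cells were seeded for 24 h in RPMI 1640 with 20% FBS, then exposed to serially diluted antibody-drug conjugates or free camptothecin drug for 4 days at 37 °C. Growth inhibition was read by luminescence, and IC50 values were reported in ng/mL and nmol/L.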

melanoma cells (A2058) = assay: In vitro potency (CellTiter-Glo, 96 h), A2058; conditions: Homo sapiens, A2058, 96 h
In short: (§2)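 Medium: RPMI 1640 + 20% FBS. Pre-seeding: 24 h. Treatment: ADC or CPT free drug serial dilutions, 96 h, 37 °C. Read-out: luminescence; IC50 in ng/mL and nmol/L.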

[2] = tested on: pancreatic cancer cells (BxPC3); assay: In vitro potency (CellTiter-Glo, 96 h), BxPC3; conditions: Homo sapiens, BXPC-3, 96 h
In short: as §2

[3] = tested on: non-small-cell lung cancer cells (Calu1); assay: In vitro potency (CellTiter-Glo, 96 h), Calu1; conditions: Homo sapiens, Calu-1, 96 h
In short: as §2

[4] = tested on: anaplastic large cell lymphoma cells (DEL); assay: In vitro potency (CellTiter-Glo, 96 h), DEL
In short: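 Authenticated lines (STR), used within 2 months of resuscitation, were seeded 24 h before treatment. Exposure to ADC dilutions lasted 96 h at 37 °C in RPMI 1640 with 20% FBS; viability was quantified luminescently.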

[5] = tested on: anaplastic large cell lymphoma cells (DELBVR); assay: In vitro potency (CellTiter-Glo, 96 h), DELBVR
In short: as §1

[6] = tested on: anaplastic large cell lymphoma cells (Karpas299); assay: In vitro potency (CellTiter-Glo, 96 h), Karpas299; conditions: Homo sapiens, KARPAS-299, 96 h
In short: as §1

[7] = tested on: Hodgkin's lymphoma cells (L540cy); assay: In vitro potency (CellTiter-Glo, 96 h), L540cy
In short: as §1

Ls174T cells = assay: In vitro potency (CellTiter-Glo, 96 h), Ls174T; conditions: Homo sapiens
In short: as §2

[8] = tested on: breast cancer cells (MDA-MB-231); assay: In vitro potency (CellTiter-Glo, 96 h), MDA-MB-231; conditions: Homo sapiens, MDA-MB-231, 96 h
In short: as §1

[9] = tested on: acute myeloid leukemia cells (MOLM-13); assay: In vitro potency (CellTiter-Glo, 96 h), MOLM-13; conditions: Homo sapiens, MOLM-13, 96 h
In short: as §2

[10] = tested on: B-lymphocyte cancer cells (SU-DHL4); assay: In vitro potency (CellTiter-Glo, 96 h), SU-DHL-4; conditions: Homo sapiens, SU-DHL-4, 96 h
In short: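 Following a 24 h seeding period in 20% FBS-supplemented RPMI 1640, log-phase cells receive graded concentrations of conjugate. Incubation runs for 4 days at 37 °C, after which luminescence is recorded and IC50 calculated in ng/mL.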

[11] = CPT free drugs, Table 24, CellTiter-Glo after 96 h exposure, read-out: IC50 (nmol/L) 786-O
[12] = CPT free drugs, Table 24, CellTiter-Glo after 96 h exposure, read-out: IC50 (nmol/L) A2058
[13] = CPT free drugs, Table 24, CellTiter-Glo after 96 h exposure, read-out: IC50 (nmol/L) BxPC3
[14] = CPT free drugs, Table 24, CellTiter-Glo after 96 h exposure, read-out: IC50 (nmol/L) Calu1
[15] = CPT free drugs, Table 24, CellTiter-Glo after 96 h exposure, read-out: IC50 (nmol/L) DEL
[16] = CPT free drugs, Table 24, CellTiter-Glo after 96 h exposure, read-out: IC50 (nmol/L) DELBVR
[17] = CPT free drugs, Table 24, CellTiter-Glo after 96 h exposure, read-out: IC50 (nmol/L) Karpas299
[18] = CPT free drugs, Table 24, CellTiter-Glo after 96 h exposure, read-out: IC50 (nmol/L) L540cy
[19] = LS174T, CPT free drugs, Table 24, CellTiter-Glo after 96 h exposure, read-out: IC50 (nmol/L) Ls174T
[20] = CPT free drugs, Table 24, CellTiter-Glo after 96 h exposure, read-out: IC50 (nmol/L) MDAMB231
[21] = CPT free drugs, Table 24, CellTiter-Glo after 96 h exposure, read-out: IC50 (nmol/L) MOLM-13
[22] = CPT free drugs, Table 24, CellTiter-Glo after 96 h exposure, read-out: IC50 (nmol/L) SU-DHL-4

## CC[C@@]1(O)C(=O)OCc2c1cc1n(c2=O)Cc2c-1nc1cc(F)c(C)c(-c3ccc(CO)s3)c1c2CN [Compound 6e]
[1]; Table 28, CPT free drugs, renal carcinoma cells 786-O, 96 h, CellTiter-Glo, read-out: 786-O IC50
  IC50: 29 nmol/L
Melanoma cells (A2058); Table 28, CPT free drugs, melanoma cells A2058, 96 h, CellTiter-Glo, read-out: A2058 IC50
  IC50: 11 nmol/L
[2]; Table 28, CPT free drugs, pancreatic cancer cells BxPC3, 96 h, CellTiter-Glo, read-out: BxPC3 IC50
  IC50: 65 nmol/L
[3]; read-out: Calu1 IC50
  IC50: 155 nmol/L
[4]; Table 28, CPT free drugs, anaplastic large cell lymphoma cells DEL, CellTiter-Glo, read-out: DEL IC50
  IC50: 4 nmol/L
[5]; Table 28, CPT free drugs, anaplastic large cell lymphoma cells DELBVR, CellTiter-Glo, read-out: DELBVR IC50
  IC50: 4 nmol/L
[6]; Table 28, CPT free drugs, anaplastic large cell lymphoma cells Karpas299, 96 h, CellTiter-Glo, read-out: Karpas299 IC50
  IC50: 31 nmol/L
[7]; Table 28, CPT free drugs, Hodgkin's lymphoma cells L540cy, CellTiter-Glo, read-out: L540cy IC50
  IC50: 18 nmol/L
Ls174T cells; Table 28, CPT free drugs, Ls174T cells, 96 h, CellTiter-Glo, read-out: Ls174T IC50
  IC50: 17 nmol/L
[8]; Table 28, CPT free drugs, breast cancer cells MDA-MB-231, 96 h, CellTiter-Glo, read-out: MDAMB231 IC50
  IC50: 57 nmol/L
[9]; Table 28, CPT free drugs, acute myeloid leukemia cells MOLM-13, 96 h, CellTiter-Glo, read-out: MOLM-13 IC50
  IC50: 17 nmol/L
[10]; Table 28, CPT free drugs, B-lymphocyte cancer cells SU-DHL4, 96 h, CellTiter-Glo, read-out: SU-DHL-4 IC50
  IC50: 7 nmol/L

## CC[C@@]1(O)C(=O)OCc2c1cc1n(c2=O)Cc2c-1nc1cc(OC)c(OC)cc1c2CN [Compound 2ao, (19S)-10-(aminomethyl)-19-ethyl-19-hydroxy-6,7-dimethoxy-17-oxa-3,13-diazapentacyclo[11.8.0.02,11.04,9.015,20]henicosa-1(21),2,4(9),5,7,10,15 (20)-heptaene-14,18-dione]
[1]; [11]
  IC50: > 1000 nmol/L
Melanoma cells (A2058); [12]
  IC50: > 1000 nmol/L
[2]; [13]
  IC50: > 1000 nmol/L
[3]; [14]
  IC50: > 1000 nmol/L
[4]; [15]
  IC50: 937 nmol/L
[5]; [16]
  IC50: > 1000 nmol/L
[6]; [17]
  IC50: > 1000 nmol/L
[7]; [18]
  IC50: > 1000 nmol/L
Ls174T cells; [19]
  IC50: > 1000 nmol/L
[8]; [20]
  IC50: > 1000 nmol/L
[9]; [21]
  IC50: > 1000 nmol/L
[10]; [22]
  IC50: > 1000 nmol/L

## CC[C@@]1(O)C(=O)OCc2c1cc1n(c2=O)Cc2c-1nc1cc(F)c(OC)c(F)c1c2CN [Compound 2x]
[1]; [11]
  IC50: 18 nmol/L
Melanoma cells (A2058); [12]
  IC50: 5 nmol/L
[2]; [13]
  IC50: 34 nmol/L
[3]; [14]
  IC50: 27 nmol/L
[4]; [15]
  IC50: 4 nmol/L
[5]; [16]
  IC50: 5 nmol/L
[6]; [17]
  IC50: 11 nmol/L
[7]; [18]
  IC50: 6 nmol/L
Ls174T cells; [19]
  IC50: 16 nmol/L
[8]; [20]
  IC50: 91 nmol/L
[9]; [21]
  IC50: 19 nmol/L
[10]; [22]
  IC50: 7 nmol/L

## CC[C@@]1(O)C(=O)OCc2c1cc1n(c2=O)Cc2c-1nc1ccc3c(c1c2CN)CCC3 [Compound 2u]
[1]; [11]
  IC50: 10 nmol/L
Melanoma cells (A2058); [12]
  IC50: 4 nmol/L
[2]; [13]
  IC50: 23 nmol/L
[3]; [14]
  IC50: 61 nmol/L
[4]; [15]
  IC50: 2 nmol/L
[5]; [16]
  IC50: 2 nmol/L
[6]; [17]
  IC50: 7 nmol/L
[7]; [18]
  IC50: 5 nmol/L
Ls174T cells; [19]
  IC50: 5.3 nmol/L
[8]; [20]
  IC50: 6 nmol/L
[9]; [21]
  IC50: 48.3 nmol/L
[10]; [22]
  IC50: 4 nmol/L

## CC[C@@]1(O)C(=O)OCc2c1cc1n(c2=O)Cc2c-1nc1cc3c(cc1c2CNCCCS(N)(=O)=O)OCO3 [Compound 7e]
[1]; read-out: 786-O IC50, camptothecin free drug, 96 h
  IC50: 25 nmol/L
Melanoma cells (A2058); read-out: A2058 IC50
  IC50: 5 nmol/L
[2]; read-out: BxPC3 IC50, camptothecin free drug, 96 h
  IC50: 21 nmol/L
[3]; read-out: Calu1 IC50
  IC50: 503 nmol/L
[4]; read-out: DEL IC50, camptothecin free drug, 96 h
  IC50: 8 nmol/L
[5]; read-out: DELBVR IC50, camptothecin free drug, 96 h
  IC50: 14 nmol/L
[6]; read-out: Karpas299 IC50, camptothecin free drug, 96 h
  IC50: 27 nmol/L
[7]; read-out: L540cy IC50, camptothecin free drug, 96 h
  IC50: 13 nmol/L
Ls174T cells; LS174T, 96 h, read-out: Ls174T IC50, camptothecin free drug, 96 h
  IC50: 17 nmol/L
[8]; read-out: MDAMB231 IC50, camptothecin free drug, 96 h
  IC50: 124 nmol/L
[9]; read-out: MOLM-13 IC50, camptothecin free drug, 96 h
  IC50: 257 nmol/L
[10]; read-out: SU-DHL-4 IC50, camptothecin free drug, 96 h
  IC50: 16 nmol/L
